This is an account of results in ChEMBL document CHEMBL4346752, “Discovery and evaluation of novel nitrodihydroimidazooxazoles as promising anti-tuberculosis agents” (Bioorg Med Chem Lett, 2019).

Usually MIC stands for the lowest concentration that inhibits growth of the organism. By CC50 is commonly meant the concentration giving 50% cytotoxicity. A word on the solubility: it is how much of the substance goes into solution per volume. What is called efflux ratio is a quotient of directional permeabilities that is used to spot active efflux. The Papp A→B is how fast a substance crosses the layer from the apical side. As usually defined, the Papp B→A is how fast a substance crosses the layer from the basolateral side. The term Papp denotes a coefficient for how fast a substance crosses the barrier.

≈ marks a conversion by molar mass, not a printed value. A value given as a limit tells only on which side of the number the result lay.

Series [1] concerns Mycobacterium tuberculosis. Put plainly: Antimycobacterial activity against Mycobacterium tuberculosis H37Rv assessed as reduction in bacterial cell growth incubated for 11 days measured under anaerobic LORA condition by luminescence assay. Format: functional. Conditions: 264 h.
Series [2] deals with Mycobacterium tuberculosis. Put plainly: Antimycobacterial activity against Mycobacterium tuberculosis H37Rv assessed as reduction in bacterial cell growth incubated for 8 days measured under aerobic MABA conditions by alamar blue staining based assay. The note with it: 192 h. Format: functional. Background: Alamar Blue is a resazurin reagent that responds to reducing activity.

A short description of series [3]: Cytotoxicity against African green monkey Vero cells assessed as reduction in cell viability incubated for 72 hrs by MTT assay. Format: cell-based. The note with it: chlorocebus sabaeus.
Series [4] in a line: Solubility of the compound in water at pH 6.5 by HPLC analysis. Format: physicochemical.
A short description of series [5]: Solubility of the compound in water at pH 2 by HPLC analysis. It counts as physicochemical.
Series [6] is described as follows: Efflux ratio of apparent permeability across basolateral to apical over apical to basolateral side in MDCK cells at […] incubated for 60 mins by HPLC analysis. It counts as ADME, cell-based, Canis lupus familiaris. Conditions: dog.
Series [7] can be described thus: Apparent permeability across apical to basolateral side in MDCK cells at […] incubated for 60 mins by HPLC analysis. It counts as ADME, cell-based, Canis lupus familiaris. Conditions: dog; for Papp A→B at 1 h: MDCK.
A short description of series [8]: Apparent permeability across basolateral to apical side in MDCK cells at […] incubated for 60 mins by HPLC analysis. It counts as ADME, cell-based, Canis lupus familiaris. Conditions: dog; for Papp B→A at 1 h: MDCK.

Turning to `C[C@]1(CN2CCc3nc(-c4cccc(F)c4)ccc3C2)Cn2cc([N+](=O)[O-])nc2O1`, the minimum inhibitory concentration (MIC) came out at 6.5 µg/mL (≈ 15.9 µM) in series [1] and 0.02 µg/mL (≈ 0.0488 µM) in series [2]. Moreover, the CC50 at 72 h in series [3] was > 32 µg/mL.
Consider `C[C@]1(CN2CCc3nc(-c4ccccc4)ccc3C2)Cn2cc([N+](=O)[O-])nc2O1`, for which the solubility is 3.35 µM (≈ 1.31 µg/mL) in series [4] and 130 µM (≈ 50.7 µg/mL) in series [5]. The efflux ratio at 1 h in series [6] (MDCK) was determined as 1.35. For the same molecule, the CC50 at 72 h in series [3] is > 32 µg/mL. In addition, in series [7], the apparent permeability from apical to basolateral (Papp A→B) at 1 h was 16.8 ×10⁻⁶ cm/s. Besides, the apparent permeability from basolateral to apical (Papp B→A) at 1 h in series [8] is 22.7 ×10⁻⁶ cm/s.
For `C[C@]1(CN2CCc3nc(-c4cc(F)cc(F)c4)ccc3C2)Cn2cc([N+](=O)[O-])nc2O1`, the minimum inhibitory concentration (MIC) was determined as 1.64 µg/mL (≈ 3.84 µM) in series [1] and 0.03 µg/mL (≈ 0.0702 µM) in series [2]. Moreover, the CC50 at 72 h in series [3] is > 32 µg/mL.
As for `C[C@]1(CN2CCc3nc(-c4ccc(F)c(F)c4)oc3C2)Cn2cc([N+](=O)[O-])nc2O1`, the CC50 at 72 h in series [3] was > 32 µg/mL.
Take `C[C@]1(CN2CCc3nc(-c4cc(F)cc(Cl)c4)ccc3C2)Cn2cc([N+](=O)[O-])nc2O1`: the minimal inhibitory concentration (MIC) in series [1] amounted to 6.41 µg/mL (≈ 14.4 µM); in series [2], 0.03 µg/mL (≈ 0.0676 µM). In addition, the 50% cytotoxic concentration (CC50) at 72 h in series [3] was > 32 µg/mL.
`C[C@]1(CN2CCc3nc(-c4ccc(F)c(F)c4)ccc3C2)Cn2cc([N+](=O)[O-])nc2O1`: the results for the MIC in series [1] and in series [2] were 3.88 µg/mL (≈ 9.08 µM) and 0.03 µg/mL (≈ 0.0702 µM), respectively. Besides, the CC50 at 72 h in series [3] is > 32 µg/mL.
In the case of `C[C@]1(CN2CCc3nc(-c4ccccc4F)ccc3C2)Cn2cc([N+](=O)[O-])nc2O1`, the minimal inhibitory concentration (MIC) in series [1] was 5 µg/mL (≈ 12.2 µM); in series [2] it was 0.05 µg/mL (≈ 0.122 µM). In series [3], the CC50 at 72 h is > 32 µg/mL.
Regarding `C[C@]1(CN2CCc3oc(-c4ccc(F)cc4)nc3C2)Cn2cc([N+](=O)[O-])nc2O1`, the CC50 at 72 h in series [3] is > 32 µg/mL.
For the molecule `CO[C@H]1/C=C/O[C@@]2(C)Oc3c(C)c(O)c4c(O)c(c(/C=N/N5CCN(C)CC5)c(O)c4c3C2=O)NC(=O)/C(C)=C\C=C\[C@H](C)[C@H](O)[C@@H](C)[C@@H](O)[C@@H](C)[C@H](OC(C)=O)[C@@H]1C` [RIFAMPIN], the minimal inhibitory concentration (MIC) in series [1] worked out at 0.72 µg/mL (≈ 0.875 µM); in series [2] it was 0.1 µg/mL (≈ 0.122 µM). Also, in series [3], the CC50 at 72 h is > 32 µg/mL.
In the case of `C[C@]1(CN2CCc3nc(-c4ccc(F)cc4)sc3C2)Cn2cc([N+](=O)[O-])nc2O1`, the CC50 at 72 h in series [3] was > 32 µg/mL.
On the same count and under the same terms, the result for `C[C@]1(CN2CCc3nc(-c4ccc(F)cc4)oc3C2)Cn2cc([N+](=O)[O-])nc2O1` reads > 32 µg/mL.
With `C[C@]1(CN2CCc3nc(-c4ccc(F)cc4)ccc3C2)Cn2cc([N+](=O)[O-])nc2O1`, the solubility in series [4] amounted to 9.41 µM (≈ 3.85 µg/mL); in series [5] it was 143 µM (≈ 58.7 µg/mL). The MIC in series [1] is 4.83 µg/mL (≈ 11.8 µM); in series [2] it was < 0.031 µg/mL. Moreover, the Ratio in series [6] (mdck, 1 h, 100000 µM) was determined as 1.09. In series [3], the half-maximal cytotoxic concentration (CC50) at 72 h was > 32 µg/mL. For the same molecule, the Papp in series [7] (mdck, 1 h, 100000 µM) was determined as 20.92 ×10⁻⁶ cm/s; in series [8] (mdck, 1 h, 100000 µM) it was 19.29 ×10⁻⁶ cm/s.
As for `C[C@]1(CN2CCc3nc(-c4cc(F)ccc4F)ccc3C2)Cn2cc([N+](=O)[O-])nc2O1`, the MIC was 5.14 µg/mL (≈ 12 µM) in series [1] and 0.05 µg/mL (≈ 0.117 µM) in series [2]. In addition, in series [3], the CC50 at 72 h is > 32 µg/mL.
Consider `C[C@]1(CN2CCc3nc(-c4cc(F)c(F)c(F)c4)ccc3C2)Cn2cc([N+](=O)[O-])nc2O1`, for which the solubility in series [4] is < 1 µM; in series [5] it was > 200 µM. Besides, the minimal inhibitory concentration (MIC) in series [1] was determined as 0.76 µg/mL (≈ 1.71 µM); in series [2], 0.08 µg/mL (≈ 0.18 µM). For the same molecule, the CC50 at 72 h in series [3] was > 32 µg/mL.
Turning to `C[C@]1(CN2CCc3nc(C4CCCCC4)ccc3C2)Cn2cc([N+](=O)[O-])nc2O1`, the MIC in series [1] came out at 7.21 µg/mL (≈ 18.1 µM); in series [2] it was 0.03 µg/mL (≈ 0.0755 µM).
For `C[C@]1(COc2ccc(N3CCC(Oc4ccc(OC(F)(F)F)cc4)CC3)cc2)Cn2cc([N+](=O)[O-])nc2O1`, the minimum inhibitory concentration (MIC) is 1.23 µg/mL (≈ 2.3 µM) in series [1] and < 0.031 µg/mL in series [2]. For the same molecule, in series [7], the Papp A→B at 1 h was 0.09 ×10⁻⁶ cm/s. The Papp B→A at 1 h in series [8] was 0.17 ×10⁻⁶ cm/s.
With `C[C@]1(CN2CCc3nc(-c4ccc(F)cc4F)ccc3C2)Cn2cc([N+](=O)[O-])nc2O1`, the minimal inhibitory concentration (MIC) in series [1] is > 8 µg/mL; in series [2], 0.03 µg/mL (≈ 0.0702 µM). Also, the CC50 at 72 h in series [3] is 12.5 µg/mL (≈ 29.2 µM).
For `C[C@]1(CN2CCc3nc(-c4cc(Cl)ccc4F)ccc3C2)Cn2cc([N+](=O)[O-])nc2O1`, the MIC in series [1] stood at 8.79 µg/mL (≈ 19.8 µM); in series [2] it was 0.04 µg/mL (≈ 0.0901 µM). In addition, the 50% cytotoxic concentration (CC50) at 72 h in series [3] was > 32 µg/mL.
`C[C@]1(CN2CCc3nc(-c4cccc(F)c4F)ccc3C2)Cn2cc([N+](=O)[O-])nc2O1`: the results for the MIC in series [1] and in series [2] were 3.72 µg/mL (≈ 8.7 µM) and 0.03 µg/mL (≈ 0.0702 µM), respectively. The cytotoxic concentration (CC50) at 72 h in series [3] is > 32 µg/mL.
`C[C@]1(CN2CCc3nc(-c4ccc(C(F)(F)F)cc4)ccc3C2)Cn2cc([N+](=O)[O-])nc2O1`: the values for the MIC in series [1] and in series [2] were > 8 µg/mL and 0.03 µg/mL (≈ 0.0653 µM), respectively. Besides, the CC50 at 72 h in series [3] was > 32 µg/mL.
Turning to `C[C@]1(CN2CCc3nc(-c4ccc(Cl)cc4F)ccc3C2)Cn2cc([N+](=O)[O-])nc2O1`, the MIC in series [1] worked out at 5.28 µg/mL (≈ 11.9 µM); in series [2] it was 0.03 µg/mL (≈ 0.0676 µM). For the same molecule, the CC50 at 72 h in series [3] was > 32 µg/mL.
Take `C[C@]1(CN2CCc3nc(-c4cc(F)ccc4Cl)ccc3C2)Cn2cc([N+](=O)[O-])nc2O1`: the values for the MIC in series [1] and in series [2] were 4.28 µg/mL (≈ 9.64 µM) and 0.15 µg/mL (≈ 0.338 µM), respectively. Also, the CC50 at 72 h in series [3] was > 32 µg/mL.
With `C[C@]1(CN2CCc3nc(-c4cccc(Cl)c4F)ccc3C2)Cn2cc([N+](=O)[O-])nc2O1`, the MIC in series [1] stood at 5.71 µg/mL (≈ 12.9 µM); in series [2] it was 0.03 µg/mL (≈ 0.0676 µM). Moreover, in series [3], the CC50 at 72 h was > 32 µg/mL.
For the molecule `C[C@]1(CN2CCc3nc(-c4ccc(Cl)c(F)c4)ccc3C2)Cn2cc([N+](=O)[O-])nc2O1`, the MIC in series [1] came out at 3.79 µg/mL (≈ 8.54 µM); in series [2], 0.03 µg/mL (≈ 0.0676 µM). Also, the CC50 at 72 h in series [3] was > 32 µg/mL.
In the case of `C[C@]1(CN2CCc3nc(-c4ccc(F)c(Cl)c4)ccc3C2)Cn2cc([N+](=O)[O-])nc2O1`, the MIC in series [1] is 3.82 µg/mL (≈ 8.61 µM); in series [2], 0.03 µg/mL (≈ 0.0676 µM). For the same molecule, the cytotoxic concentration (CC50) at 72 h in series [3] was > 32 µg/mL.
